The assay relates to NL5901, CL2006 and CL4176 worms. The assay is described as follows: Motor function (thrashing, paralysis) in worms expressing human α-synuclein or Aβ in muscles. The format is in vivo, C. elegans. Particulars: NL5901, human α-synuclein within muscles. An excerpt: FIG. 21, panels A-F: AIC106 prevents neuronal loss and proteotoxicity in strains expressing human neurotoxic proteins. Panel A) Dopaminergic neuronal loss in day-5 UA44 worms was quantified by scoring percentage of worms with intact 4-CEP neurons in AIC106 and DMSO-control treatment. [N=3 independent experiments (mean±SD). ***p<0.001, by one-way ANOVA with Tukey's multiple comparisons test]. Motor function in (panel B) day-7 NL5901 and (panel C) day-5 CL2006 worms were quantified by scoring number of thrashes for an individual worm over the period of 30 seconds (dots) in AIC106 and DMSO-control treatment. […] Panel D) Motor function in temperature sensitive (enhanced paralysis at 25° C.) CL4176 worms was determined by scoring percent of worms paralyzed in AIC106 and DMSO-control treatment. […] P-value calculated by Logrank test]. Panel F) Effect of AIC106 on polyQ40 aggregation was determined by scoring number of polyQ40-YFP fluorescent puncta in an individual AM141 worm treated with AIC106 and DMSO-control. […]
FIG. 22, panels A-H: AIC106-induced HLH-30 expression is mediated by the nuclear hormone receptor DAF-12. […] Panel B) Relative fold change in mRNA of hlh-30 compared to DMSO-control was quantified using qRT-PCR in young adult wild-type N2 and daf-12(rh61rh411) worms post-24 hours treatment with AIC106. […]

Regarding `O=c1oc2c3c4c(cc2c2c1CCC2)CCCN4CCC3` [C1, 2,3,6,7,10,11-Hexahydro-1H,5H-cyclopenta(3,4)(1)benzopyrano(6,7,8-ij)quinolizin-12(9H)-one], the “motor function (thrashing rate)” value is on record as “improved motor function”.

`Cc1cccc(C)c1OCc1cc(C(=O)N2CCC(c3ccncc3)CC2)no1` [DFA, dafadine-A, reference compound]: the “motor function (thrashing rate)” value is given as “improved motor function”.

For the origin of these results see patent US12673039B2, “Methods of inducing autophagy using coumarin derivatives and related compounds” (Buck Institute for Research on Aging, priority 2019, dated 2026).
